Source: ChEMBL document CHEMBL1128584, “Prediction of drug binding affinities by comparative binding energy analysis” (J Med Chem, 1995)

Each molecule was assayed against T1, Phospholipase A2, membrane associated (Homo sapiens) (UniProt P14555) (assay: Inhibitory activity against human synovial fluid phospholipase A2 (HSF-PLA2)). Conditions: concentration not given here.
T1 sequence (whole entry): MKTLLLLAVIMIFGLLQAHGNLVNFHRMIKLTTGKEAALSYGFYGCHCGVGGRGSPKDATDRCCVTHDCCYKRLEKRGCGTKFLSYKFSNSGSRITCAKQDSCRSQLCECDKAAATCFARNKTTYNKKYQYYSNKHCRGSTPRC
Set-up: concentration or dose not given beside the values

SMILES | inhibition [%]
CCCCCCCCCCCC(=O)NC(CCCCCC)COP(=O)(O)CCCC (stereo not given) | 45
CCCCCCCCCCS(=O)(=O)N[C@H](CCCCCC)COP(=O)(O)OCCOCc1ccccc1 (stereo in doubt; form 3) | 74
CCCCCCCCCCS(=O)(=O)NC(CCCCCC)COP(=O)(O)OCCOCc1ccccc1 (stereo in doubt; form 1) | 12
CCCCCCCCCCCC(=O)NC(CCCCCC)COP(=O)(O)OCCCC (stereo not given) | 80
CCCCCCCCCCS(=O)(=O)N[C@H](CCCCCC)COP(=O)(O)OCCOCc1ccccc1 (stereo in doubt; form 2) | 46
CCCCCCCCCCCC(=O)NC(CCCCCC)COP(=O)(O)OCCOCc1ccccc1 (stereo not given) | 6
CCCCCCCCCCS(=O)(=O)NC(CCCCCC)COP(=O)(O)OCCO (stereo in doubt; form 2) | 44
CCCCCCCCCCS(=O)(=O)CC(CCCCCC)COP(=O)(O)OCCOCc1ccccc1 (stereo in doubt; form 1) | 29
CCCCCCCCCCCC(=O)NC(CCCCCC)COP(=O)(O)OCC(N)C(=O)O (stereo not given) | 31
CCCCCCCCCCS(=O)(=O)NC(CCCCCC)COP(=O)(O)OCCOCc1ccccc1 (stereo in doubt; form 2) | 36
CCCCCCCCOCC(COP(=O)(O)OCC[N+](C)(C)C)OP(=O)(O)CCCCCCC (stereo not given) | 9
CCCCCCCCOCC(COP(=O)(O)OCCN)OP(=O)(O)CCCCCCC (stereo not given) | 33
CCCCCCCCCCS(=O)(=O)NC(CCCCCC)COCC(F)(F)F (stereo not given) | 0
CCCCCCCCCCS(=O)(=O)NC(CCCCCC)COP(=O)(O)OCCN (stereo not given) | 4
CCCCCCCCCCS(=O)(=O)NC(CCc1ccccc1)COP(=O)(O)OCCOCc1ccccc1 (stereo not given) | 24

The remaining lines, values ahead:

inhibition [%] | SMILES
79 | CCCCCCCCCCS(=O)(=O)CC(CCCCCC)COP(=O)(O)OCCOCc1ccccc1 (stereo in doubt; form 2)
40 | CCCCCCCCCCS(=O)(=O)N[C@H](CCCCCC)COP(=O)(O)OCCO
30 | CCCCCCCCCCS(=O)(=O)NC(CCCCCC)COP(=O)(O)CCCC (stereo not given)
0 | CCCCCCCCCCS(=O)(=O)NC(CCCCCC)COP(=O)(O)OCCCC (stereo not given)
28 | CCCCCCCCCCC(=O)NC(CCCCCC)COP(=O)(O)OCCN (stereo not given)
28 | CCCCCCCCCCS(=O)(=O)NC(CCCCCC)COS(=O)(=O)CCCOCc1ccccc1 (stereo not given)
61 | CCCCCCCCCCCC(=O)NC(CCCCCC)COP(=O)(O)OCCO (stereo not given)
45 | CCCCCCCCCCS(=O)(=O)N[C@H](CCCCCC)COP(=O)(O)OCCOCc1ccccc1 (stereo in doubt; form 1)
49 | CCCCCCCCCCS(=O)(=O)NC(CCCCCC)COP(=O)(O)OCCO (stereo in doubt; form 1)
24 | CCCCCCCCCCCC(=O)NC(CCCCCC)COP(=O)(CCCC)OC (stereo not given)
